# Key:
# Format in all cases: cell-based
# PLK1 = molecular target: T1, PLK1 (Homo sapiens, UniProt P53350); assay: Luciferase assay for PLK1 in HeLa LgBit (Plk1-HiBit KI) cell line; details: 300 nM compound, luminescence after 9 hours
# T1 construct: endogenous in cells; host or cells: HeLa LgBit (Plk1-HiBit KI): HeLa stably expressing LgBit, with a CRISPR/Cas9 knock-in of HiBit at the endogenous PLK1 locus
# In short: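 Luminescence, followed in real time after adding compound at 300 nM and Endurazine substrate, is reported relative to DMSO-treated wells. Cells are a HeLa LgBit line with a Plk1-HiBit knock-in, synchronized by 2 mM thymidine for 24 h, released, and cultured 18 h before treatment.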
# NCI-H526 cell line = assay: Cell viability assay for H526 cell (EZ-Cytox); details: Homo sapiens, NCI-H526, 120 h; H526 cells, 5 days, 3000 nM to 0.46 nM
# In short: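 Read-out was EZ-Cytox colorimetric absorbance at 450 nm, taken after brief plate shaking, with IC50 derived. Before reading, H526 cells had been cultured with test compound for 5 days.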
# MRC-5 cell line = assay: Cell viability assay for MRC-5 cell line (EZ-Cytox); details: Homo sapiens, MRC5, 120 h; MRC-5 normal cell line, 5 days, 10000 nM to 1.52 nM; N.D. = no cytotoxicity until 10 μM; read-out: Activity: IC50 value of Exemplary Compound to MRC-5 cell line
# Method: 4. Cell Viability Assay for MRC-5 Cell Line
# (1) Culture of MRC-5 Cell Line
# Passage of cultured cells was maintained within P15.
# (2) Treatment of Compounds of the Present Invention
# Then, it was cultured in 37° C.
# (3) Cytotoxicity Experiment
# CO2 incubator for 4 hours.
# T1 sequence (P53350 whole entry): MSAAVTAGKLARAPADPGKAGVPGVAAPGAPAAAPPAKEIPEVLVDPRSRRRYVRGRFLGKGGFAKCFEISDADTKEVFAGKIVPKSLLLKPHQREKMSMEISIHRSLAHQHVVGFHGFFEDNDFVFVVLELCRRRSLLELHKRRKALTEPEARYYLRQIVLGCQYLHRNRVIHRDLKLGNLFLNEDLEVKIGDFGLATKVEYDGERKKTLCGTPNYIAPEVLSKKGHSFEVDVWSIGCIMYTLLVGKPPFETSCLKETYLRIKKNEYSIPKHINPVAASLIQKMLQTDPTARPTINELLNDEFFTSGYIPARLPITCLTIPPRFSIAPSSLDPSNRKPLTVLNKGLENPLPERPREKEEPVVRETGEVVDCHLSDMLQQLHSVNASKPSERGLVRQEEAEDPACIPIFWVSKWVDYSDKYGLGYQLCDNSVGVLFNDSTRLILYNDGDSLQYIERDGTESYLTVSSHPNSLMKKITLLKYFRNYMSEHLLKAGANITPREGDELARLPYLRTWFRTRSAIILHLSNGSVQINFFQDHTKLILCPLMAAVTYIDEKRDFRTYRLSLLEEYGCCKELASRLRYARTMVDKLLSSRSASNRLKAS
Compound,Activity: ratio of the luminescense value of each Exemplary Compound treatment group to DMSO treatment group (PLK1),IC50 (NCI-H526 cell line),IC50 (MRC-5 cell line)
"CN1C(=O)C(F)(F)CN(C2CCCC2)c2nc(Nc3ccc(C(=O)NC4CCN(C(=O)CCN5CCN(c6cccc7c6C(=O)N(C6CCC(=O)NC6=O)C7=O)CC5)CC4)cc3O)ncc21 (stereo not drawn) [Compound 72, 4-((9-cyclopentyl-7,7-difluoro-5-methyl-6-oxo-6,7,8,9-tetrahydro-5H-pyrimido[4,5-b][1,4]diazepin-2-yl)amino)-N-(1-(3-(4-(2-(2,6-dioxopiperidin-3-yl)-1,3-dioxoisoindolin-4-yl)piperazin-1-yl)propanoyl)piperidin-4-yl)-3-hydroxybenzamide]",++ (++<0.6),< 0.1 µM,> 10 µM
"COc1cc(C(=O)NC2CCN(C(=O)CC3CCN(c4cccc5c4C(=O)N(C4CCC(=O)NC4=O)C5=O)C3)CC2)c(F)cc1Nc1ncc2c(n1)N(C1CCCC1)CC(F)(F)C(=O)N2C (stereo not drawn) [Compound 44, 4-((9-cyclopentyl-7,7-difluoro-5-methyl-6-oxo-6,7,8,9-tetrahydro-5H-pyrimido[4,5-b][1,4]diazepin-2-yl)amino)-N-(1-(2-(1-(2-(2,6-dioxopiperidin-3-yl)-1,3-dioxoisoindolin-4-yl)pyrrolidin-3-yl)acetyl)piperidin-4-yl)-2-fluoro-5-methoxybenzamide]",++ (++<0.6),< 0.1 µM,> 10 µM
"COc1cc(C(=O)N[C@H]2CCN(C(=O)COc3cccc4c3C(=O)N(C3CCC(=O)NC3=O)C4=O)C2)ccc1Nc1ncc2c(n1)N(C1CCCC1)CC(F)(F)C(=O)N2C (stereo partly drawn) [Compound 40, 4-((9-cyclopentyl-7,7-difluoro-5-methyl-6-oxo-6,7,8,9-tetrahydro-5H-pyrimido[4,5-b][1,4]diazepin-2-yl)amino)-N-((3S)-1-(2-((2-(2,6-dioxopiperidin-3-yl)-1,3-dioxoisoindolin-4-yl)oxy)acetyl)pyrrolidin-3-yl)-3-methoxybenzamide]",++ (++<0.6),< 0.2 µM,> 10 µM
"COc1cc(C(=O)N2CCN(CCCN3CCN(c4ccc5c(c4)C(=O)N(C4CCC(=O)NC4=O)C5=O)CC3)CC2)ccc1Nc1ncc2c(n1)N(C1CCCC1)CC(F)(F)C(=O)N2C (stereo not drawn) [Compound 90, 5-(4-(3-(4-(4-((9-cyclopentyl-7,7-difluoro-5-methyl-6-oxo-6,7,8,9-tetrahydro-5H-pyrimido[4,5-b][1,4]diazepin-2-yl)amino)-3-methoxybenzoyl)piperazin-1-yl)propyl)piperazin-1-yl)-2-(2,6-dioxopiperidin-3-yl)isoindoline-1,3-dione]",++ (++<0.6),< 0.4 µM,> 10 µM
"COc1cc(C(=O)NC2CCN(C(=O)CCCOc3cccc4c3CN(C3CCC(=O)NC3=O)C4=O)CC2)ccc1Nc1ncc2c(n1)N(C1CCCC1)CC(F)(F)C(=O)N2C (stereo not drawn) [Compound 32, 4-((9-cyclopentyl-7,7-difluoro-5-methyl-6-oxo-6,7,8,9-tetrahydro-5H-pyrimido[4,5-b][1,4]diazepin-2-yl)amino)-N-(1-(4-((2-(2,6-dioxopiperidin-3-yl)-1-oxoisoindolin-4-yl)oxy)butanoyl)piperidin-4-yl)-3-methoxybenzamide]",++ (++<0.6),< 0.05 µM,> 10 µM

# The next lines start with results.
Activity: ratio of the luminescense value of each Exemplary Compound treatment group to DMSO treatment group (PLK1),Compound,IC50 (NCI-H526 cell line),IC50 (MRC-5 cell line)
++ (++<0.6),"COc1cc(C(=O)NC2CC(N(C)C3CCN(c4cccc5c4C(=O)N(C4CCC(=O)NC4=O)C5=O)CC3)C2)ccc1Nc1ncc2c(n1)N(C(C)C)CC(F)(F)C(=O)N2C (stereo not drawn) [Compound 164, 4-((7,7-difluoro-9-isopropyl-5-methyl-6-oxo-6,7,8,9-tetrahydro-5H-pyrimido[4,5-b][1,4]diazepin-2-yl)amino)-N-(3-((1-(2-(2,6-dioxopiperidin-3-yl)-1,3-dioxoisoindolin-4-yl)piperidin-4-yl)(methyl)amino)cyclobutyl)-3-methoxybenzamide]",< 0.03 µM,> 10 µM
++ (++<0.6),"COc1cc(C(=O)NC2CCN(C3CC4(CCN(c5cccc6c5C(=O)N(C5CCC(=O)NC5=O)C6=O)CC4)C3)CC2)c(F)cc1Nc1ncc2c(n1)N(C1CCCC1)CC(F)(F)C(=O)N2C (stereo not drawn) [Compound 208, 4-((9-cyclopentyl-7,7-difluoro-5-methyl-6-oxo-6,7,8,9-tetrahydro-5H-pyrimido[4,5-b][1,4]diazepin-2-yl)amino)-N-(1-(7-(2-(2,6-dioxopiperidin-3-yl)-1,3-dioxoisoindolin-4-yl)-7-azaspiro[3.5]nonan-2-yl)piperidin-4-yl)-2-fluoro-5-methoxybenzamide]",< 0.1 µM,> 10 µM
+++ (+++: <0.3),"COc1cc(C(=O)NC2CC(N(C)CCC3CCN(c4ccc5c(c4)C(=O)N(C4CCC(=O)NC4=O)C5=O)CC3)C2)ccc1Nc1ncc2c(n1)N(C1CCCC1)CC(F)(F)C(=O)N2C (stereo not drawn) [Compound 106, 4-((9-cyclopentyl-7,7-difluoro-5-methyl-6-oxo-6,7,8,9-tetrahydro-5H-pyrimido[4,5-b][1,4]diazepin-2-yl)amino)-N-(3-((2-(1-(2-(2,6-dioxopiperidin-3-yl)-1,3-dioxoisoindolin-5-yl)piperidin-4-yl)ethyl)(methyl)amino)cyclobutyl)-3-methoxybenzamide]",< 0.1 µM,> 10 µM
+++ (+++: <0.3),"COc1cc(C(=O)NC2CC3(CCN(CC4CCN(c5cccc6c5C(=O)N(C5CCC(=O)NC5=O)C6=O)CC4)CC3)C2)ccc1Nc1ncc2c(n1)N(C1CCCC1)CC(F)(F)C(=O)N2C (stereo not drawn) [Compound 136, 4-((9-cyclopentyl-7,7-difluoro-5-methyl-6-oxo-6,7,8,9-tetrahydro-5H-pyrimido[4,5-b][1,4]diazepin-2-yl)amino)-N-(7-((1-(2-(2,6-dioxopiperidin-3-yl)-1,3-dioxoisoindolin-4-yl)piperidin-4-yl)methyl)-7-azaspiro[3.5]nonan-2-yl)-3-methoxybenzamide]",< 0.03 µM,6.52 µM
++ (++<0.6),"COc1cc(C(=O)N[C@H]2CC[C@H](N3CCN(c4ccc5c(c4)C(=O)N(C4CCC(=O)NC4=O)C5=O)CC3)CC2)ccc1Nc1ncc2c(n1)N(C(C)C)CC(F)(F)C(=O)N2C (stereo partly drawn) [Compound 150, 4-((7,7-difluoro-9-isopropyl-5-methyl-6-oxo-6,7,8,9-tetrahydro-5H-pyrimido[4,5-b][1,4]diazepin-2-yl)amino)-N-((1r,4r)-4-(4-(2-(2,6-dioxopiperidin-3-yl)-1,3-dioxoisoindolin-5-yl)piperazin-1-yl)cyclohexyl)-3-methoxybenzamide]",< 0.05 µM,19.3 µM
+++ (+++: <0.3),"COc1cc(C(=O)NN2CCC(CN3CCN(c4cccc5c4CN(C4CCC(=O)NC4=O)C5=O)CC3)C(F)(F)C2)ccc1Nc1ncc2c(n1)N(C(C)C)CC(F)(F)C(=O)N2C (stereo not drawn) [Compound 158, 4-((7,7-difluoro-9-isopropyl-5-methyl-6-oxo-6,7,8,9-tetrahydro-5H-pyrimido[4,5-b][1,4]diazepin-2-yl)amino)-N-(4-((4-(2-(2,6-dioxopiperidin-3-yl)-1-oxoisoindolin-4-yl)piperazin-1-yl)methyl)-3,3-difluoropiperidin-1-yl)-3-methoxybenzamide]",< 0.05 µM,39.3 µM
